{"source": "ChEMBL document CHEMBL5465560", "about": "“Selectivity Literature for EUbOPEN Chemogenomic Library” (2024)", "key": {"[1]": {"target": "T1, Serine/threonine-protein kinase 3 (Homo sapiens) (UniProt Q13188)", "T1 sequence (whole entry)": "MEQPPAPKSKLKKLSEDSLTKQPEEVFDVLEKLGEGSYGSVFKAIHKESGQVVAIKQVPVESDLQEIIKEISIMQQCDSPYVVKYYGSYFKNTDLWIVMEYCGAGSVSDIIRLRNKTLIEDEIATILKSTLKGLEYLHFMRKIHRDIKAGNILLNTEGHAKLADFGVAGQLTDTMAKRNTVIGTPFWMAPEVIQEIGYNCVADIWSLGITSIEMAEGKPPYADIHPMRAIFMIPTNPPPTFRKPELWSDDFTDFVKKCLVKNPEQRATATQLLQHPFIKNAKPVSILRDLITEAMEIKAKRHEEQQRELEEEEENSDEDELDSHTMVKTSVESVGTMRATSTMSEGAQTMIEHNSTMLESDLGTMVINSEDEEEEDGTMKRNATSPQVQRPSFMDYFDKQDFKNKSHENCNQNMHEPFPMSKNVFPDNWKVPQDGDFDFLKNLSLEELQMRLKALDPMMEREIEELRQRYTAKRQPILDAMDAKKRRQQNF", "assay": "Selectivity interaction (ActivX KiNativ screen (kinase selectivity in THP-1 cell lysates)) EUB0000639a STK3", "type": "subcellular", "conditions": "lysate, at 0.01 µM"}, "[2]": {"target": "T1, Serine/threonine-protein kinase 3 (Homo sapiens)", "assay": "Selectivity interaction (KinomeScan (DiscoverX)) EUB0000595a STK3", "conditions": "at 10 µM"}, "[3]": {"target": "Mitogen-activated protein kinase kinase kinase kinase 4 (Homo sapiens, UniProt O95819)", "sequence (O95819 2-1239 limits assumed)": "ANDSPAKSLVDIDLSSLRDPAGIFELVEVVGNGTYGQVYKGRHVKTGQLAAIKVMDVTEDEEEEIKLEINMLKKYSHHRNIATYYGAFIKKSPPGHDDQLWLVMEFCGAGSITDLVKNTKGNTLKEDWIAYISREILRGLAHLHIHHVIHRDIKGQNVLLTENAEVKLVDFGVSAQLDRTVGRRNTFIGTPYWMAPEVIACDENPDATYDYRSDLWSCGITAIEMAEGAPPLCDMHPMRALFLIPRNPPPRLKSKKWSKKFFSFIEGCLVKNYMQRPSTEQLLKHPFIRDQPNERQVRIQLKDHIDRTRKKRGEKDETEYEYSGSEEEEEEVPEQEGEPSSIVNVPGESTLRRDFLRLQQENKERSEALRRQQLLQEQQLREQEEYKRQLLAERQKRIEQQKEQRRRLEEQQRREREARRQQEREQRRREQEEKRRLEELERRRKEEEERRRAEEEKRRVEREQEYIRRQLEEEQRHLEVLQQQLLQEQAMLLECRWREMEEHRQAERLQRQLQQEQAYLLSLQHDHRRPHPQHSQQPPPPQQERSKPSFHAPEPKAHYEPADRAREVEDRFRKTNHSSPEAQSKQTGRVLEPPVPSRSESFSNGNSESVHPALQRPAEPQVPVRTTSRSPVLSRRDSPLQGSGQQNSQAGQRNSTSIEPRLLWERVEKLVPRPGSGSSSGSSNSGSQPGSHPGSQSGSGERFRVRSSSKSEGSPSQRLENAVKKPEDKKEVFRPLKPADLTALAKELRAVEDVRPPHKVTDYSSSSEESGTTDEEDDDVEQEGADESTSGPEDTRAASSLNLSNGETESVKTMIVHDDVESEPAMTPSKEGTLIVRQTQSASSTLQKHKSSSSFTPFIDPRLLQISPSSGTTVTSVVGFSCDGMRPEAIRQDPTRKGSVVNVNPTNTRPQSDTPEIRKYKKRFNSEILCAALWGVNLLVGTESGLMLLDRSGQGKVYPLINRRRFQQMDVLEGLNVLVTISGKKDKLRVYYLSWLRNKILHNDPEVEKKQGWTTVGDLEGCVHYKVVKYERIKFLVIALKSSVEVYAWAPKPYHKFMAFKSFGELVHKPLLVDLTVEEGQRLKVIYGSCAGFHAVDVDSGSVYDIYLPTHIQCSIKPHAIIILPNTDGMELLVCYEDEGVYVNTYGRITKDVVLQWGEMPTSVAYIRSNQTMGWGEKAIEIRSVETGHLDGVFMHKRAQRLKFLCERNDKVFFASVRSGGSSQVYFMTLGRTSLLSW", "assay": "Selectivity interaction (KinomeScan (DiscoverX)) EUB0000092b MAP4K4", "conditions": "at 10 µM"}, "[4]": {"target": "T2, Serine/threonine-protein kinase DCLK2 (Homo sapiens) (UniProt Q8N568)", "T2 sequence (whole entry)": "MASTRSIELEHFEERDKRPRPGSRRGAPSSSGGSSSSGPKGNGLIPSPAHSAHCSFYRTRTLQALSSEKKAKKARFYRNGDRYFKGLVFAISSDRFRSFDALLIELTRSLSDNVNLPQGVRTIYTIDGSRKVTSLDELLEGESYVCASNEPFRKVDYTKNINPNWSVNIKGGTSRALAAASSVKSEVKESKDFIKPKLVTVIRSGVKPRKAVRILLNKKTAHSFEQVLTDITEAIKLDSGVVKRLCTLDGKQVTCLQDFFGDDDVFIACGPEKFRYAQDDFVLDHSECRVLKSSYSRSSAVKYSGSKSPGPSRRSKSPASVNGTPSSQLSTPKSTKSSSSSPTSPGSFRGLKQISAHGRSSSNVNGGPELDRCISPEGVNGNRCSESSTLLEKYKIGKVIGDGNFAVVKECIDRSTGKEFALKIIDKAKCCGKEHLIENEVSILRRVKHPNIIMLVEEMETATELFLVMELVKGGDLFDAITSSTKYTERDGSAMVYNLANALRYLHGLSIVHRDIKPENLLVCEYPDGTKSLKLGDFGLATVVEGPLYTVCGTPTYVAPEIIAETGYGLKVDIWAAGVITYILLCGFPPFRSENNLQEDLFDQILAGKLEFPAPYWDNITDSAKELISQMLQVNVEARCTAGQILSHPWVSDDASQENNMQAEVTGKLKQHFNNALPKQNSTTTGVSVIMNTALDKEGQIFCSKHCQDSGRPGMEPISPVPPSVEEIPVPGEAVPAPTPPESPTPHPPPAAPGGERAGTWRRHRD", "assay": "Selectivity interaction (Kinase screening (Nanosyn)) EUB0000604a DCLK2"}, "[5]": {"target": "T3, Serine/threonine-protein kinase Sgk3 (Homo sapiens) (UniProt Q96BR1)", "T3 sequence (whole entry)": "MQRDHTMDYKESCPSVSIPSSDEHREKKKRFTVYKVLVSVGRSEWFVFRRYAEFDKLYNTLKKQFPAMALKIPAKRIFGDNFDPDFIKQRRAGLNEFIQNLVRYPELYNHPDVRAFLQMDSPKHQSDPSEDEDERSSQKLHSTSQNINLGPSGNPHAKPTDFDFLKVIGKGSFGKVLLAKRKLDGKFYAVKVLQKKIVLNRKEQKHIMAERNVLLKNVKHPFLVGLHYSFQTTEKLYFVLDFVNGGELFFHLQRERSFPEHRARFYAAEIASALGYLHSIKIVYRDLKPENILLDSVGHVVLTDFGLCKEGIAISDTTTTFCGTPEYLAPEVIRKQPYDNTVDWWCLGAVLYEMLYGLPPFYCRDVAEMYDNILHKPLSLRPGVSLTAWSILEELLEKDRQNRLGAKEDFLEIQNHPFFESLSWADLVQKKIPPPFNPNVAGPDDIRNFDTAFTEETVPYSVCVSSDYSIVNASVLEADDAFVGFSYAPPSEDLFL", "assay": "Selectivity interaction (ActivX KiNativ screen (ex vivo kinase selectivity in human PBMCs)) EUB0001619a SGK3", "type": "cell-based", "conditions": "PBMC, at 1 µM"}, "[6]": {"target": "T2, Serine/threonine-protein kinase DCLK2 (Homo sapiens)", "assay": "Selectivity interaction (KinomeScan (DiscoverX)) EUB0001619a DCLK2", "conditions": "at 1 µM"}, "[7]": {"target": "T4, Ephrin type-B receptor 4 (Homo sapiens) (UniProt P54760)", "T4 sequence (whole entry)": "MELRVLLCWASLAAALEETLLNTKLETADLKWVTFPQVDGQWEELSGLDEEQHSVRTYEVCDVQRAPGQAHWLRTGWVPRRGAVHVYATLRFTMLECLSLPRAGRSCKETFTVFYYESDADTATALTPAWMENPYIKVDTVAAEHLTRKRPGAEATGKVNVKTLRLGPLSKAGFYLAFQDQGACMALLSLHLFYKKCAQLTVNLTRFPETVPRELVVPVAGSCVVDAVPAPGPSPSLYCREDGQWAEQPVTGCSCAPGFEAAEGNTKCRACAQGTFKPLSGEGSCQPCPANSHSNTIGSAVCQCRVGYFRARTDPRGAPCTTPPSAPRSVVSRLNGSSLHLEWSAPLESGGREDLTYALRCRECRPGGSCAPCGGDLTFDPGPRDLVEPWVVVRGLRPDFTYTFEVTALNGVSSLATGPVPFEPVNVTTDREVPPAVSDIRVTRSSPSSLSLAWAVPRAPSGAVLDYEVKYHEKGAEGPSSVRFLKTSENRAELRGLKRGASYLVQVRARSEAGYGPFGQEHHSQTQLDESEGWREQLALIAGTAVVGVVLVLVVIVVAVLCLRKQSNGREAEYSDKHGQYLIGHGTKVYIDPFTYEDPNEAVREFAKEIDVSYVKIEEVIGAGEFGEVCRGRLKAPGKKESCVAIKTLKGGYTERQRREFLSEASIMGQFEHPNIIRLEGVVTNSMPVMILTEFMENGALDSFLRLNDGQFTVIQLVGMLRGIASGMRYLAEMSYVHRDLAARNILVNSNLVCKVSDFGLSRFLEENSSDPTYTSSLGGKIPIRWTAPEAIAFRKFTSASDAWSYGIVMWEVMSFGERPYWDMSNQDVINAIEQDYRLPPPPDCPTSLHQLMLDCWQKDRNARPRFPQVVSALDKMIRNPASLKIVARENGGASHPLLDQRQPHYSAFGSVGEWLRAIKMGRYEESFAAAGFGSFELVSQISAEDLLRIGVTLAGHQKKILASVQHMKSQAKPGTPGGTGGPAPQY", "assay": "Selectivity interaction (ProQinase) EUB0000171b EPHB4"}}, "data": [{"smiles": "CC[C@@H]1[C@H](F)C(=O)N[C@@H]1COc1nccc2cc(C(N)=O)c(OC)cc12", "note": "[ZIMLOVISERTIB]", "values": [{"measurement": "% of inhibition", "setting": "[1]", "result": -19.5, "unit": "%"}]}, {"smiles": "COCC(=O)NC/C=C/c1ccc2ncnc(Nc3ccc(Oc4ccc(C)nc4)c(C)c3)c2c1", "note": "[CP-724714]", "values": [{"measurement": "% of control", "setting": "[2]", "result": 82, "unit": "%"}]}, {"smiles": "CCC(=O)N1CCN(c2ccc(-n3c(=O)ccc4cnc5ccc(-c6cnc7ccccc7c6)cc5c43)cc2C(F)(F)F)CC1", "values": [{"measurement": "% of control", "setting": "[3]", "result": 5.2, "unit": "%"}]}, {"smiles": "Cc1cnc(Nc2ccc(F)cc2Cl)nc1-c1c[nH]c(C(=O)N[C@H](CO)c2cccc(Cl)c2)c1", "values": [{"measurement": "% of inhibition", "setting": "[4]", "result": 1, "unit": "%"}]}, {"smiles": "N#Cc1cccc(-c2c[nH]c3ncnc(N4CCOCC4)c23)c1", "values": [{"measurement": "% of inhibition", "setting": "[5]", "result": -1, "unit": "%"}, {"measurement": "% of control", "setting": "[6]", "result": 100, "unit": "%"}]}, {"smiles": "C=CC(=O)Nc1cccc(C(=O)Nc2ccc(Nc3cc(-c4[nH]c(SC)nc4C)ccn3)cc2)c1", "values": [{"measurement": "% of control", "setting": "[7]; at 1 µM", "result": 110, "unit": "%"}, {"measurement": "% of control", "setting": "[7]; at 5 µM", "result": 111, "unit": "%"}]}]}
